Values after ≈ are worked out from the molar mass of the structure shown.
What was measured:
B16 Melanoma [1] = conditions: 11 μg/kg; cited from earlier work
P388 in vitro cell line = P388 in vitro cell line growth inhibition; type: cell-based, murine
MX-1 = MX-1 tumor regression; type: in vivo, human
[2] = system: Human Mammary Xenograph MX-1; assay: Human mammary xenograph to nude mouse MX-1 (life extension); type: in vivo
[3] = system: L1210 Lymphocytic Leukemia; assay: L1210 lymphocytic leukemia, murine in vivo system
[4] = system: P388 lymphocytic leukemia; assay: NCI murine P388 lymphocytic leukemia (PS system), in vivo
Procedure: Unit dosage forms of dolastatin 10 prepared according to selected compositions described in Example 1 were screened utilizing Protocol 1,200 described in Cancer Chemotherapy Reports, parts 3, Vol. 3, No. 2, September 1972, pp 9 et seq for lymphocytic leukemia P388. Dolastatin 10 provided a 69-102% life extension at 1-4 μg/Kg host body weight against the murine P388 lymphocytic leukemia.

M5076 Ovary Sarcoma = assay: M5076 ovary sarcoma, murine in vivo system
[5] = system: Human Melanoma Xenograph (LOX); assay: NCI human melanoma xenograph to nude mouse (LOX); type: in vivo
Procedure: Unit dosage forms of dolastatin 10 were prepared according to Example 1 and were screened using accepted protocols of the National Cancer Institute. The preparation obtained a 17-67% cure rate at 3.25-26 μg/kg host body weight against NCI murine human melanoma xenograph.

B16 Melanoma [6] = assay: NCI murine B16 melanoma, in vivo
Procedure: A unit dosage form of dolastatin 10, prepared according to Example 1, was challenged with B-16 murine melanoma and obtained a 42% to 138% life extension at 1.44 to 11.1 μg/Kg using the National Cancer Institute accepted protocol.

[7] = system: Human Melanoma Xenograph (LOX); assay: NCI human melanoma xenograph to nude mouse (LOX); type: in vivo; conditions: 52 μg/kg

For dolastatin 1, the cure rate (B16 Melanoma [1]) is listed as 33%.

For CC[C@H](C)[C@@H]([C@@H](CC(=O)N1CCC[C@H]1[C@H](OC)[C@@H](C)C(=O)N[C@@H](Cc1ccccc1)c1nccs1)OC)N(C)C(=O)[C@@H](NC(=O)[C@H](C(C)C)N(C)C)C(C)C [Dolastatin 10], the ED50 (P388 in vitro cell line) was 0.046 ng/mL (≈ 0.0586 nM), the “MX-1 Tumor Regression, T/C” value (MX-1; 6.25 μg/kg) was 69 and the “MX-1 Tumor Regression, T/C” value (MX-1; 13 μg/kg) was 61. The “MX-1 Tumor Regression, T/C” value (MX-1; 26 μg/kg) was 50, the “MX-1 Tumor Regression, T/C” value (MX-1; 52 μg/kg) was 14 and the “T/C (life extension)” value ([2]; 6.25 μg/kg) was 178. The “T/C (life extension)” value ([2]; 13 μg/kg) was 137, the “T/C (life extension)” value ([2]; 26 μg/kg) was “toxic” and the “T/C (life extension)” value ([2]; 52 μg/kg) was “toxic”. For the same compound, the T/C ([3]; 1.63 μg/kg) was 120, the T/C ([3]; 3.25 μg/kg) was 139 and the T/C ([3]; 6.5 μg/kg) was 135. The T/C ([3]; 13 μg/kg) was 152, the T/C ([3]; 26 μg/kg) was “toxic” and the T/C ([4]; 2 μg/kg) was 199. It also gave a T/C ([4]; 4 μg/kg) of 202, a T/C ([4]; 8 μg/kg) of 161 and a T/C ([4]; 13.5 μg/kg) of 173. The T/C ([4]; 08-27 μg/kg) was “toxic”, the T/C (M5076 Ovary Sarcoma; 3.25 μg/kg) was 151 and the T/C (M5076 Ovary Sarcoma; 6.5 μg/kg) was 142. For the same compound, the T/C (M5076 Ovary Sarcoma; 13 μg/kg) was 166, the T/C (M5076 Ovary Sarcoma; 24 μg/kg) was “toxic” and the T/C (M5076 Ovary Sarcoma; 26 μg/kg) was “toxic”. It also gave a T/C ([5]; 3.25 μg/kg) of 170, a T/C ([5]; 6.5 μg/kg) of 206 and a cures ([5]; 6.5 μg/kg) of 16.6%. The T/C ([5]; 13 μg/kg) was 301, the cures ([5]; 13 μg/kg) was 33.3% and the T/C ([5]; 26 μg/kg) was 301. For the same compound, the cures ([5]; 26 μg/kg) was 50%, the “curative response / cure rate” value ([5]; 3.25-26 μg/kg) was 17-67% and the T/C (B16 Melanoma [6]; 3.4 μg/kg) was 171. It also gave a T/C (B16 Melanoma [6]; 4.0 μg/kg) of 205, a T/C (B16 Melanoma [6]; 6.67 μg/kg) of 182 and a T/C (B16 Melanoma [6]; 11.11 μg/kg) of 238. The T/C [7] was “toxic” and the cures [7] was 66.6%.
